How the values were obtained:
Assay type in all cases: cell-based
NCI-H2052 = test: mesothelioma cell line proliferation assay, NCI-H2052; conditions: Homo sapiens, 144 h; NCI-H2052 mesothelioma cells, 6 days incubation, ATPlite cell viability
Method: (§1) Mesothelioma cell lines, NCI-H226 and NCI-H2052 (both sourced from the ATCC cell culture collection) are plated in 96-well plates (Corning® 96 Well White Polystyrene Microplate clear flat bottom, white polystyrene (TC-Treated)), at 1500 cells/well in full medium (RPMI 1640 ATCC modification with L-glutamine, HEPES, Phenol Red, Sodium Pyruvate, High glucose, Low sodium bicarbonate and 10% fetal bovine serum). Cells are incubated overnight at 37° C. in an incubator with 5% CO2. Then compounds, dissolved in DMSO, are added in dose-response. Cells are incubated with compound dilutions for another 6 days at 37° C. in an incubator with 5% CO2. Cell viability is quantitated using the ATPlite kit (Perkin-Elmer) and the luminescence is read-out using an Envision instrument (Perkin-Elmer). The amount of relative light units produced using the ATPlite kit is used to calculate percent of inhibition. The activities of some example compounds are depicted in Table 4. The activity ranges A, B and C refer to EC50 values in the mesothelioma cell line proliferation assay as described as follows: “A”: EC50<1 μM; “B”: 1 μM s […] and “C”: EC50>10 μM; NT: not tested.

[1] = system: YAP/TAZ-TEAD transcription; test: reporter gene assay for measuring the inhibition of YAP/TAZ-TEAD transcription (TEAD-responsive element luciferase reporter in Hek293T cells); conditions: Homo sapiens, HEK-293T; Hek293T cells transiently transfected with TEAD-responsive element luciferase reporter, 24 hours incubation
Method: Example 21: Activity of compounds of the disclosure in a reporter gene assay for measuring the inhibition of YAP/TAZ-TEAD transcription Hek293T cells are cultured in DMEM supplemented with 10% fetal bovine serum, Sodium pyruvate, Sodium bicarbonate, L-glutamine. The cells are harvested and transiently transfected with TEAD-responsive element luciferase reporter. Transfected cells are plated in 384-well plate containing pre-diluted compounds. After 24 hours incubation at 37° C./5% CO2, assay plates were cooled to room temperature and levelled to an equal volume per well, prior to the addition of 25 uL luciferase substrate SteadyLite (Perkin Elmer)/well. The plate was shaken for 10 min at 600 rpm, centrifuged for 1 min at 500 rpm and measured with an Envision reader (PerkinElmer). The amount of relative light units produced by the TEAD reporter is used to calculate the percentage of inhibition. The percent of reporter inhibition was calculated in the presence of a positive control inhibitor (100% inhibition) versus a condition with the presence of the vehicle basal activity of the reporter (0% inhibition). The ability of a test compound to inhibit this activity was determined as: Percentage inhibition=[[…]((RLU determined in the presence of vehicle—RLU determined for sample with test compound present) divided by (RLU determined in the presence of vehicle—RLU determined for sample with positive control inhibitor))] *100.
The activities of example compounds tested are depicted in Table 3. The activity ranges A, B and C refer to IC50 values in the reporter gene assay as follows: “A”: IC50<1 μM; “B”: 1 μM≤IC50 10 μM and “C”: IC50>10 μM; NT=not tested.

NCI-H226 = test: mesothelioma cell line proliferation assay, NCI-H226; conditions: Homo sapiens, 144 h; NCI-H226 mesothelioma cells, 6 days incubation, ATPlite cell viability
Method: as §1

C=CC(=O)NCc1nc(C2CCC(F)(F)CC2)c2ccccn12 [Cpd. No. 026, N-((1-(4,4-difluorocyclohexyl)imidazo[1,5-a]pyridin-3-yl)methyl)acrylamide]
< 1000 nM: EC50 (NCI-H2052) | IC50 [1] | EC50 (NCI-H226)

CNS(=O)(=O)/C=C/c1nc(-c2ccc(C(F)(F)F)cc2)c2ccccn12 [Cpd. No. 027, (E)-N-methyl-2-(1-(4-(trifluoromethyl)phenyl)imidazo[1,5-a]pyridin-3-yl)ethene-1-sulfonamide]
< 1000 nM: EC50 (NCI-H2052) | IC50 [1] | EC50 (NCI-H226)

Source: patent US20240383891A1, “BENZIMIDAZOLE AND RELATED ANALOGS FOR INHIBITING YAP/TAZ-TEAD” (SpringWorks Therapeutics, Inc., priority 2023, published 2024)
